Experimental findings from ChEMBL document CHEMBL1201862, “PubChem BioAssay data set” (2004) are described below.

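Protocol summary: plate cells (96-well), add compound at 5 concentrations, incubate 48 h, interpolate endpoints linearly. The concentration for 50% growth inhibition is given as GI50.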 Active and inactive are the calls of the source. Cut-off read from the data, not from the text of the source: active = GI50 up to about 1.1 µM and inactive = higher.

Among the test systems are A549; COLO 205; DU-145; EKVX; HCC 2998; HOP-62; HOP-92; KM12; MDA-MB-231; MDA-MB-435; NCI-H460; OVCAR-3; OVCAR-8; RPMI-8226; SK-MEL-5; SK-OV-3; SNB-75; U-251; UACC-257; UO-31.
Assay in all cases: growth of human tumour cells (NCI), 48 h

On to `C/C(=N\N=C(/S)N(C)C)c1cccc[n+]1[O-]`, for which the GI50 is 59.7 µM (inactive) in the assay with A549; 0.82 µM (active) in the assay with COLO 205; 59 µM (inactive) in the assay with DU-145; 25.9 µM (inactive) in the assay on EKVX; 19.9 µM (inactive) in the assay with HCC 2998; 18 µM (inactive) in the assay with HOP-62. Moreover, the GI50 was 22.3 µM (inactive) in the assay on HOP-92; 45.5 µM (inactive) in the assay with KM12; 2.99 µM (inactive) with MDA-MB-231; 65.8 µM (inactive) with MDA-MB-435; 33.6 µM (inactive) in the assay on NCI-H460; 5.12 µM (inactive) with OVCAR-3. For the same molecule, the GI50 in the assay on OVCAR-8 was 23.7 µM (inactive); in the assay with RPMI-8226, 3.62 µM (inactive); in the assay on SK-MEL-5 it was 27.7 µM (inactive); with SK-OV-3, 70.5 µM (inactive); in the assay with SNB-75 it was 93.1 µM (inactive); with U-251, 44.3 µM (inactive). Moreover, the GI50 with UACC-257 is 4.38 µM (inactive); in the assay with UO-31 it was 23.2 µM (inactive).

As for `O=C1C=C(Br)C(=O)C12CCc1ccccc12` (stereo not given), the GI50 is 23.5 µM (inactive) in the assay on A549; 4.05 µM (inactive) in the assay on COLO 205; 16.2 µM (inactive) in the assay with DU-145; 25.4 µM (inactive) in the assay with EKVX; 22.3 µM (inactive) in the assay with HCC 2998; 39 µM (inactive) in the assay on HOP-62. In addition, the GI50 with HOP-92 is 13.5 µM (inactive); in the assay with KM12, 21.1 µM (inactive); in the assay with MDA-MB-231 it was 28.4 µM (inactive); in the assay with MDA-MB-435, 14.7 µM (inactive); in the assay with NCI-H460, 22.6 µM (inactive); in the assay with OVCAR-3, 18.5 µM (inactive). For the same molecule, the GI50 in the assay with OVCAR-8 is 14.9 µM (inactive); with RPMI-8226, 3.05 µM (inactive); with SK-MEL-5, 19.7 µM (inactive); in the assay with SK-OV-3, 27.4 µM (inactive); with SNB-75, 13.6 µM (inactive); in the assay on U-251 it was 21.7 µM (inactive). The GI50 in the assay with UACC-257 is 19.4 µM (inactive); in the assay with UO-31, 18.5 µM (inactive).

Turning to `OCCN1CCN(c2nc(N3CCCC3)c3nc(Cl)c(NCc4ccccc4)nc3n2)CC1`, the GI50 was 6.59 µM (inactive) with A549; 2.47 µM (inactive) in the assay with COLO 205; 8.15 µM (inactive) with DU-145; 11.3 µM (inactive) in the assay with EKVX; 1.93 µM (inactive) in the assay with HCC 2998; 3.58 µM (inactive) in the assay with HOP-62. Moreover, the GI50 in the assay with HOP-92 was 5.16 µM (inactive); in the assay with KM12 it was 4.97 µM (inactive); in the assay on MDA-MB-231, 9.82 µM (inactive); in the assay on MDA-MB-435, 3.98 µM (inactive); in the assay with NCI-H460, 5.58 µM (inactive); with OVCAR-3, 8.02 µM (inactive). The GI50 in the assay with OVCAR-8 is 8.77 µM (inactive); in the assay on RPMI-8226 it was 2.83 µM (inactive); in the assay on SK-MEL-5 it was 3.51 µM (inactive); in the assay with SK-OV-3, 13.7 µM (inactive); with SNB-75, 3.27 µM (inactive); in the assay with U-251, 5.65 µM (inactive). The GI50 in the assay on UACC-257 was 5.15 µM (inactive); in the assay with UO-31, 4.89 µM (inactive).

On to `CC(C)(C)C(=O)C(C(=O)c1ccccc1)C(=O)C(C)(C)C`, for which the GI50 with A549, in the assay on COLO 205, in the assay with DU-145, in the assay with EKVX, with HCC 2998 and with HOP-62 was > 100 µM (inactive) in each case. In addition, the GI50 in the assay on HOP-92 is > 100 µM (inactive); in the assay with KM12, > 100 µM (inactive); with MDA-MB-231, 98.2 µM (inactive); in the assay on MDA-MB-435, > 100 µM (inactive); in the assay on NCI-H460 it was > 100 µM (inactive); in the assay on OVCAR-3, > 100 µM (inactive). In addition, the GI50 was 48.5 µM (inactive) with OVCAR-8; > 100 µM (inactive) with RPMI-8226; > 100 µM (inactive) in the assay on SK-MEL-5; > 100 µM (inactive) with SK-OV-3; > 100 µM (inactive) with SNB-75; > 100 µM (inactive) in the assay with U-251. Besides, the GI50 in the assay on UACC-257 and in the assay on UO-31 was > 100 µM (inactive) each time.

Turning to `Cc1ccc(S(=O)(=O)N2CCCSCCN(S(=O)(=O)c3ccc(C)cc3)CCCSCC2)cc1`, the GI50 in the assay on A549 was > 100 µM (inactive); in the assay with COLO 205, > 100 µM (inactive); in the assay on DU-145, > 100 µM (inactive); with EKVX it was > 100 µM (inactive); with HCC 2998 it was 89.5 µM (inactive); in the assay with HOP-62, > 100 µM (inactive). Further, the GI50 in the assay on HOP-92, in the assay with KM12, in the assay with MDA-MB-231, in the assay with MDA-MB-435, in the assay on NCI-H460 and in the assay on OVCAR-3 was > 100 µM (inactive) each time. Also, the GI50 with OVCAR-8, in the assay on RPMI-8226, in the assay with SK-MEL-5, in the assay with SK-OV-3, in the assay on SNB-75 and with U-251 was > 100 µM (inactive) each time. Moreover, the GI50 in the assay on UACC-257 was > 100 µM (inactive); in the assay with UO-31, 51.8 µM (inactive).

Regarding `C=C(C)C(=O)OC1CC2(C)OC(=CC2=O)C(C)CC2OC(=O)C(=C)C12` (stereo not given), the GI50 was 18.9 µM (inactive) in the assay on A549; 1.23 µM (inactive) in the assay on COLO 205; 4.74 µM (inactive) with DU-145; 7.76 µM (inactive) in the assay on EKVX; 10.3 µM (inactive) with HCC 2998; 19.2 µM (inactive) in the assay with HOP-62. The GI50 in the assay on HOP-92 is 5.56 µM (inactive); in the assay on KM12, 19.8 µM (inactive); in the assay on MDA-MB-231 it was 13.5 µM (inactive); with MDA-MB-435, 4.13 µM (inactive); in the assay on NCI-H460, 11.9 µM (inactive); with OVCAR-3, 5.15 µM (inactive). Also, the GI50 was 8.41 µM (inactive) in the assay with OVCAR-8; 3.3 µM (inactive) in the assay with RPMI-8226; 3.52 µM (inactive) with SK-MEL-5; 34.9 µM (inactive) in the assay with SK-OV-3; 20.2 µM (inactive) in the assay with SNB-75; 16.5 µM (inactive) with U-251. The GI50 in the assay with UACC-257 is 12.3 µM (inactive); with UO-31, 4.9 µM (inactive).

Regarding `COc1ccc(N2C=Nn3c(nc4sc5c(c4c3=O)CCCC5)C2)cc1`, the GI50 was > 100 µM (inactive) in the assay with A549; > 100 µM (inactive) in the assay on COLO 205; > 100 µM (inactive) in the assay on DU-145; 73.6 µM (inactive) in the assay with EKVX; 47.8 µM (inactive) in the assay with HCC 2998; 3.09 µM (inactive) in the assay with HOP-62. The GI50 in the assay with HOP-92 was 12.2 µM (inactive); in the assay on KM12 it was > 100 µM (inactive); in the assay on MDA-MB-231 it was 6.37 µM (inactive); in the assay on MDA-MB-435 it was > 100 µM (inactive); in the assay with NCI-H460 it was 86.9 µM (inactive); with OVCAR-3 it was > 100 µM (inactive). Further, the GI50 was 51.4 µM (inactive) in the assay on OVCAR-8; > 100 µM (inactive) with RPMI-8226; > 100 µM (inactive) with SK-MEL-5; > 100 µM (inactive) in the assay with SK-OV-3; 8.77 µM (inactive) with SNB-75; 16.7 µM (inactive) with U-251. Also, the GI50 is 56.1 µM (inactive) in the assay with UACC-257 and > 100 µM (inactive) in the assay with UO-31.

With `On1c(-c2ccccc2)nc2ccccc2c1=S`, the GI50 in the assay on A549 was 2.84 µM (inactive); in the assay on COLO 205, 3.12 µM (inactive); in the assay with DU-145, 7.64 µM (inactive); with EKVX it was 10.3 µM (inactive); with HCC 2998 it was 2.4 µM (inactive); in the assay on HOP-62, 7.35 µM (inactive). In addition, the GI50 was > 100 µM (inactive) with HOP-92; 3.18 µM (inactive) in the assay with KM12; 70.3 µM (inactive) in the assay with MDA-MB-231; 7.43 µM (inactive) with MDA-MB-435; 0.583 µM (active) in the assay on NCI-H460; 4.39 µM (inactive) in the assay with OVCAR-3. Also, the GI50 in the assay with OVCAR-8 was 4 µM (inactive); in the assay with RPMI-8226, 3.27 µM (inactive); in the assay with SK-MEL-5, 3.58 µM (inactive); in the assay with SK-OV-3, 6.92 µM (inactive); in the assay with SNB-75, 19.3 µM (inactive); with U-251 it was 4.95 µM (inactive). In addition, the GI50 in the assay with UACC-257 was 54.3 µM (inactive); with UO-31, 3.39 µM (inactive).

Consider `CS(=O)(=O)c1ccc(/C=N/NC(N)=S)cc1`, for which the GI50 with A549, in the assay on COLO 205, in the assay with DU-145, in the assay with EKVX, in the assay with HCC 2998 and in the assay on HOP-62 was > 100 µM (inactive) in each case. The GI50 in the assay on HOP-92, in the assay with KM12, in the assay with MDA-MB-231, with MDA-MB-435, in the assay on NCI-H460 and in the assay with OVCAR-3 was > 100 µM (inactive) each time. Further, the GI50 in the assay with OVCAR-8, with RPMI-8226, in the assay with SK-MEL-5, in the assay with SK-OV-3, in the assay with SNB-75 and in the assay with U-251 was > 100 µM (inactive) throughout. Also, the GI50 in the assay with UACC-257 and in the assay with UO-31 was > 100 µM (inactive) each time.

Take `Cc1ccc2c(O)cc(-c3cccs3)nc2n1`: the GI50 with A549 was 9.79 µM (inactive); in the assay with COLO 205 it was 6.98 µM (inactive); in the assay with DU-145, 30.5 µM (inactive); in the assay with EKVX, 57 µM (inactive); with HCC 2998, 12.9 µM (inactive); in the assay on HOP-62, 37.9 µM (inactive). For the same molecule, the GI50 with HOP-92 was 57 µM (inactive); with KM12 it was 2.76 µM (inactive); in the assay with MDA-MB-231, > 72.6 µM (inactive); in the assay on MDA-MB-435, 1.58 µM (inactive); with NCI-H460, 5.08 µM (inactive); with OVCAR-3, 14.3 µM (inactive). The GI50 in the assay on OVCAR-8 was 18.2 µM (inactive); in the assay with RPMI-8226, 5.05 µM (inactive); in the assay with SK-MEL-5, 4.72 µM (inactive); with SK-OV-3 it was 30.3 µM (inactive); with SNB-75, 10.1 µM (inactive); in the assay on U-251, 12.1 µM (inactive). Moreover, the results for the GI50 in the assay on UACC-257 and with UO-31 were > 100 µM (inactive) and 8.61 µM (inactive), respectively.
